Earlier results on one compound are cited in patent publication US12096767B2, “Residual disinfectant composition” (Kimberly-Clark Worldwide, Inc., priority 2015, dated 2024).

The conditions of the data set: determined at a temperature of 25° C.

Take `O=CC(=O)O` [glyoxylic acid]: the pka1 is 3.18.
